Laboratory results as given in patent publication US20120148857A1, “Treated wood and methods of treatment” (priority 2010, published 2012).
Read-outs that look alike come from different tables or passages of the source.

Key:
[1] = Text: Knowing the molecular weight of the product, it was possible to calculate how many moles of water were hydrated. It was thus possible to calculate the molar content of a saturated solution of the particular zinc salt, and thus to determine if is was sufficiently soluble at a low but possible processing temperature for an unheated preservative-treatment facility. […] Ten grams of the clear solution was dried overnight in a 70 C oven. […] Water has a molecular weight of 18.
The anhydrous foamed salt was crushed and added back to the solution, as crystallization seeding.
The washed precipitates were dried to constant weight in a 70 C oven.

[2] = from the CRC listed solubility
Excerpt: Following is a listing of candidate zinc salts with the properties found in the CRC handbook, 65th edition, and their stated solubilities at various temperatures, and molecular weights. The Name in each case is followed by CRC listed solubilities at stated temperatures, Molecular weight, and Molarity of saturated solution.

[3] = pH test of impregnating solution with Hydrion test paper; conditions: 0.2 molar solution
Excerpt: It was then allowed to float in a 0.2 molar sodium metaborate solution, absorbing it by capillary wicking. After six hours the upper surface was damp.

[4] = pH measurement of aqueous solutions with ion-sensitive FET pH meter; assay type: physicochemical; conditions: water
Excerpt: Time was allowed for the pH reading to equilibrate after each addition. This typically took ten to thirty seconds, and increased noticeably with further additions. An Ion-Sensitive FET pH meter was used. The meter was calibrated before and after each measurement series with pH 7.0 buffer solution, and the readings corrected for any meter drift observed. The pH measurements were graphed.
Five milliliters of a solution of pH 4.1 contains about 10^−4 moles H^+ per liter times 5/1000=5×10^−7 moles H^+. Fifteen mL of a solution of pH 7.5 contains 15/1000×10^−75 moles of H^+, or about 10^−9.3 moles H^+. Twenty milliliters of a solution of pH 6.9 contains 20/1000×10^−6.9 moles of H+, or about 10^−8.7 moles of H+.

In the case of `O=C([O-])c1ccccc1.O=C([O-])c1ccccc1.[Zn+2]` [Zinc benzoate], the “Molarity of saturated solution” value [1] is reported as “mol/L 0.0117”.

In the case of `O=C([O-])CC(O)C(=O)[O-].[Zn+2]` (stereo not drawn) [Zinc malate], the “Molarity of saturated solution” value [1] is reported as “mol/L 0.071”, the “Molarity of the saturated solution” value [1] is reported as 0.133 M and the “Solubility (laboratory measurement)” value [1] is reported as “Zinc malate 1.4 g/100 ml@16 C”.

For `O.O.O.O.O.O.O.O.O=S(=O)([O-])c1ccc(O)cc1.O=S(=O)([O-])c1ccc(O)cc1.[Zn+2]` [Zinc phenol-sulfonate octahydrate], the “Molarity of saturated solution” value [2] was “mol/L 1.12”.

For `O=B[O-].[Na+]` [sodium metaborate], the “pH of solution by Hydrion test paper” value [3] was 10-11 pH.

With (ZnO) (B2O3)2 the “pH of a saturated solution” value [4] was 6.7.

For Zinc Valerate dihydrate, the “Molarity of saturated solution” value [2] was “mol/L 0.085”.

In the case of Zinc mandelate, the “Molarity of saturated solution” value ([1]; from the laboratory solubility (10-16 C)) is reported as “mol/L 0.010” and the “Solubility (laboratory measurement)” value ([1]; water, 14 C) is reported as “Zinc mandelate 0.38 g/100 ml@14 C”.

With Zinc sorbate the Solubility in words [1] was “so little solubility even in hot water”.

In the case of “zinc borate [zinc borate furnished by City Chemical, reference compound]”, the “pH of a saturated solution” value [4] is reported as 6.7.
